Like-named read-outs stand apart in the source and are kept apart here. Blank lines part the entries; values can stand above or below the compound they belong to.
Tests used:
[1] = molecular target: human δ opioid receptor (Homo sapiens, UniProt P41143); test: Opioid receptor binding, [3H]naltrindole, CHO cell membranes
[2] = molecular target: human κ opioid receptor (Homo sapiens, UniProt P41145); test: Opioid receptor binding, [3H]U69,593, CHO cell membranes
[3] = molecular target: T1, cDNA-expressed human CYP2C19 (Homo sapiens, UniProt P33261); test: biochemical
T1 sequence (P33261 whole entry): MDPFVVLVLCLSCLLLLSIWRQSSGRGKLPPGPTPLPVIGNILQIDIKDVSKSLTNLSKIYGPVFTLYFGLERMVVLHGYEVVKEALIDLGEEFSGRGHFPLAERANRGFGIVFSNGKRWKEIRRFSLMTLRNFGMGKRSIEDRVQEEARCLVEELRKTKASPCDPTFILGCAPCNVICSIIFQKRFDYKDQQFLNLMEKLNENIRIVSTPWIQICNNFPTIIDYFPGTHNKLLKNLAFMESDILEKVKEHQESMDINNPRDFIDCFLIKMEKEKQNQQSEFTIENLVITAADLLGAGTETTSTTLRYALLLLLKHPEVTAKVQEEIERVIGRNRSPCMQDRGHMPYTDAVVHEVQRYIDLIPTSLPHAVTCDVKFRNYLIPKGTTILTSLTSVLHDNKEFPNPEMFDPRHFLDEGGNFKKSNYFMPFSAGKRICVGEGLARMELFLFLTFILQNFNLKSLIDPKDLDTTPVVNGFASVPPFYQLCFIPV

[4] = system: nociceptive thresholds; assay type: in vivo, rat; conditions: for Antinociceptive effects of inhibitor alone: icv 50, 250, 500 nmol (fluconazole 250 and 500 nmol), TF or HP; for Antinociception of inhibitor alone: large icv doses (250-500 nmol), 7 – 11 min after administration, TF and HP; for Antagonism of azole-induced antinociception by naltrexone: naltrexone 5 mg/kg i.p. pre-treatment, TF 11 min post-icv azole
[5] = system: improgan antinociception; assay type: in vivo; conditions: improgan 250 nmol icv, TF
[6] = system: brain form of heme oxygenase; conditions: ref Suppl. Table 1; cited from earlier work
[7] = system: improgan antinociception; assay type: in vivo, mouse; conditions: for Decrease of average improgan antinociception in Cpr^low vs control mice: improgan 145 nmol icv
[8] = molecular target: human μ opioid receptor (Homo sapiens, UniProt P35372); test: Opioid receptor binding, [3H]DAMGO, CHO cell membranes
human μ opioid receptor, sequence (P35372 whole entry): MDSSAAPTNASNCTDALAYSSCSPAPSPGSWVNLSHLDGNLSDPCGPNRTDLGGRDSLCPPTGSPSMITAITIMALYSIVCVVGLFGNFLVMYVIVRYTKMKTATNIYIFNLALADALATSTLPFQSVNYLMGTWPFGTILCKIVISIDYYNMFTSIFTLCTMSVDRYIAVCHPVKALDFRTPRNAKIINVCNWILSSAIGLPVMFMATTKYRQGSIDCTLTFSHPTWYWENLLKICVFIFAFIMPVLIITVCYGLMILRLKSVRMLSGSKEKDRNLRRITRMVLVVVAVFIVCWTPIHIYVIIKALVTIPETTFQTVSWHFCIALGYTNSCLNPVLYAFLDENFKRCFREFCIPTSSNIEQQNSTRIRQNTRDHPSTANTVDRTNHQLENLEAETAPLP

[9] = molecular target: T1, cDNA-expressed human CYP2C19; conditions: read-out: Ki CYP2C19; cited from earlier work
[10] = molecular target: human H3 receptor (Homo sapiens, UniProt Q9Y5N1); assay type: binding
human H3 receptor, sequence (Q9Y5N1 whole entry): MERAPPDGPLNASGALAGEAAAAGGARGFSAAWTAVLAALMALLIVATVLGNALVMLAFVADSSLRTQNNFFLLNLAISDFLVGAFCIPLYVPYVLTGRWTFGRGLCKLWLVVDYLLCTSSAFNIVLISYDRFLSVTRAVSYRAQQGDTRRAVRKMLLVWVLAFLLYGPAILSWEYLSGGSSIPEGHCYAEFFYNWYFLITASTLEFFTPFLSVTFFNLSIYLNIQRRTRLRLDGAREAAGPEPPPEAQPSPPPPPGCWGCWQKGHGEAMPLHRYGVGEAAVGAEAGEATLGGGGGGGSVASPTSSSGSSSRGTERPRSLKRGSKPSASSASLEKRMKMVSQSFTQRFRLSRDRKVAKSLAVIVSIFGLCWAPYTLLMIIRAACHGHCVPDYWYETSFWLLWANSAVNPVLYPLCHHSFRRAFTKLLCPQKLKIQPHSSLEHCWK

human κ opioid receptor, sequence (P41145 whole entry): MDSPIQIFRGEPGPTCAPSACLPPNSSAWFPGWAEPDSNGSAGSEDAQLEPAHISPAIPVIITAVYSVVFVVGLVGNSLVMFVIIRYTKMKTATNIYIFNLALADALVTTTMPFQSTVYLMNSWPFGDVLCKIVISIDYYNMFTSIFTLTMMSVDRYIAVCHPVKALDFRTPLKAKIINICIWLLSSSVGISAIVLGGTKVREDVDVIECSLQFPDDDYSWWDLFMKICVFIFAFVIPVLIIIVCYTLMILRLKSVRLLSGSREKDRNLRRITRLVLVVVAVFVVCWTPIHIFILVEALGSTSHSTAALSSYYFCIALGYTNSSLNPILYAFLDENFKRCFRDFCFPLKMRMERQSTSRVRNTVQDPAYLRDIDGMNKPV
human δ opioid receptor, sequence (P41143 whole entry): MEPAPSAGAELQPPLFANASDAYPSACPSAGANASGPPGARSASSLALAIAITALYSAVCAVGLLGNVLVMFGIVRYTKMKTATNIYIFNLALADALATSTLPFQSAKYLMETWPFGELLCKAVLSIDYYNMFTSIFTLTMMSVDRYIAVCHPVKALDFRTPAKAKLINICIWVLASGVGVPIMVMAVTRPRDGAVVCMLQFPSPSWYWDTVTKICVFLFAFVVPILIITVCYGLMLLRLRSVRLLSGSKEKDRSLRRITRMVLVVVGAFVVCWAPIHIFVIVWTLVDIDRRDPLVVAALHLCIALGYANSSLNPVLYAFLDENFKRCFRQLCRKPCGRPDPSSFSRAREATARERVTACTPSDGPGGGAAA

SMILES: Clc1ccccc1C(c1ccccc1)(c1ccccc1)n1ccnc1 [Clotrimazole, clotrimazole]
Ki [1]: 770 ± 25 nM
Ki [2]: 260 ± 8.7 nM
Ki [3]: 316 nM
Antinociceptive effects of inhibitor alone [4]: no significant antinociceptive effects

SMILES: OC(Cn1cncn1)(Cn1cncn1)c1ccc(F)cc1F [Fluconazole, fluconazole]
Antagonism of improgan antinociception ([5]; inhibitor 100 nmol icv): nearly-complete antagonism
Antinociceptive effects of inhibitor alone [4]: no significant antinociceptive effects
Inhibition of the brain form of heme oxygenase [6]: do not inhibit

SMILES: CN/C(=N\C#N)NCCCc1c[nH]cn1 [Improgan]
Antinociception in wild-type mice ([7]; 145 nmol icv, 10 - 30 min after administration, tail immersion): significant, near-maximal antinociception
Decrease of average improgan antinociception in Cpr^low vs control mice ([7]; no CC12, 10 min): 59%
Decrease of average improgan antinociception in Cpr^low vs control mice ([7]; no CC12, 20 min): 37%
Decrease of average improgan antinociception in Cpr^low vs control mice ([7]; no CC12, 30 min): 41%

SMILES: CC(=O)N1CCN(c2ccc(OCC3COC(Cn4ccnc4)(c4ccc(Cl)cc4Cl)O3)cc2)CC1 (stereo not drawn) [Ketoconazole, ketoconazole]
Ki [1]: > 10000 nM
Ki [2]: > 10000 nM
Antinociception of inhibitor alone [4]: notable antinociception
Antagonism of azole-induced antinociception by naltrexone [4]: but not that produced by ketoconazole
Ki [8]: > 10000 nM

Ki [1]: > 10000 nM
Ki [2]: > 10000 nM
Ki [10]: 22200 nM
Ki [8]: > 10000 nM
SMILES: C#CCOc1ccccc1CCCCCC(=O)NS(C)(=O)=O [MS-PPOH, N-methylsulfonyl-6-(2-propargyloxyphenyl)hexanamide]
Ki [9]: > 10000 nM
Attenuation of improgan antinociception ([5]; inhibitor 30 nmol icv): virtually complete attenuation

Ki [1]: 590 ± 29 nM
Ki [2]: 760 ± 120 nM
Ki [10]: 4470 nM
Ki [8]: 1400 nM
SMILES: Clc1ccc(COC(Cn2ccnc2)c2ccc(Cl)cc2Cl)c(Cl)c1 (stereo not drawn) [Miconazole, miconazole]
Antagonism of improgan antinociception ([5]; inhibitor 10 nmol icv): nearly-complete antagonism
Antinociception of inhibitor alone [4]: notable antinociception
Antagonism of azole-induced antinociception by naltrexone [4]: did not achieve robust statistical significance

SMILES: Clc1ccc(CSC(Cn2ccnc2)c2ccc(Cl)cc2Cl)cc1 (stereo not drawn) [Sulconazole, sulconazole]
Antagonism of azole-induced antinociception by naltrexone [4]: completely blocked

From article PMC3065546 (Pain, 2011)
